Values quoted from earlier work as cited in patent KR20170036668A, “피부 발진의 예방 또는 치료용 약학 조성물” (주식회사 대웅제약, priority 2014, dated 2017).

Legend:
[1] = tested on: 피부 발진; conditions: prophylactic treatment; Jatoi A et al., Cancer 113:847-853

| Structure (SMILES) | Incidence of erlotinib related skin effect (ERSE) (NSCLC and PC clinical trials) [%] | Proportion of patients with grade 3-4 ERSE (NSCLC and PC clinical trials) [%] | Time to onset of rash after start of treatment (rash above the waist) | Improvement of skin rash versus placebo [1] [%] |
| --- | --- | --- | --- | --- |
| C#Cc1cccc(Nc2ncnc3cc(OCCOC)c(OCCOC)cc23)c1 [엘로티닙] | 75 | ~10 | 7-10 일 | – |
| CN(C)[C@@H]1C(O)=C(C(N)=O)C(=O)[C@@]2(O)C(O)=C3C(=O)c4c(O)cccc4[C@@](C)(O)[C@H]3C[C@@H]12 [테트라사이클린] | – | – | – | 30 |
